# Laboratory results: publication PMC11729425 (ACS Pharmacology & Translational Science, 2024)
# Columns and labels:
# [1] = set-up: method as in PMID 29669694; settings: compared to Myriocin; cited from earlier work
# [2] = system: sphingolipids in gastrocnemius muscle and brain; experiment: Sphingolipid and deoxysphingolipid analysis in gastrocnemius muscle and brain of aged mice (20 weeks); assay type: in vivo, C57BL/6JRj mice; settings: 1 mg/kg in the food
# Protocol: Figure 4 1-deoxy-SL species accumulate in muscle and brain tissues during aging and contribute to cellular protein aggregation. (A,B) Heat map representing the abundance of sphingolipids in (A) gastrocnemius muscle and (B) brain with and without treatment with ALT-007 in mice (ALT-007 at 1 mg/kg; DMSO at equivalent volume for 20 weeks). N = 8 per group. Data are shown as log2 fold change. Adjusted P values are indicated as follows: *adjusted P < 0.05; **adjusted P < 0.01; ***adjusted P < 0.001. (C,D) Representative images and quantification of protein aggregates upon 1-deoxy-SA (C) and P053 treatment (D) in human primary IBM cells; both were administered at 4 μM for 24 h. N = 8 per group. (E) Analysis of 1-Deoxy-Spa and 1-DeoxyCer 24:1 levels in myoblasts from healthy and IBM patients. N = 3 per group. (C–E) Quantitative data are expressed as median with IQR and compared using the Mann–Whitney U test. All tests were 2 sided. *P < 0.05, **P < 0.01, ***P < 0.001.
# Sphingolipid and deoxysphingolipid measurements were performed by liquid chromatography–tandem mass spectrometry (LC–MS/MS) analysis as described in previous studies.[12],[13],[28]−[30] […]
# ESI source conditions were used as follows: dry gas temperature, 230 °C; nebulizer, 35 psi and flow rate of 14 L min^–1; sheath gas temperature, 400 °C and flow rate of 12 L min^–1; nozzle voltage, 500 V; and capillary voltage, 4000 V. Dynamic multiple reaction monitoring was used as the acquisition mode with a total cycle time of 500 ms. […] Raw LC–MS/MS data were processed applying Agilent Quantitative Analysis software (version B.07.00, MassHunter Agilent Technologies).
# Absolute quantification was based on calibration curves and stable isotope-labeled internal standards to determine the response factor for each metabolite, with linearity assessed using 12-point range standard curves. […] Sphingolipid concentrations were reported and protein concentrations in protein pellets (measured by BCA, Thermo Fisher Scientific) were determined after metabolite extraction. […]
# [3] = set-up: method as in PMID 29669694; settings: cited from earlier work
smiles,measurement,setting,value
COc1cc(C(=O)N2CC[C@H](NC(=O)c3ccccc3OC(F)(F)F)c3c2cnn3C(C)C)cnc1OC [ALT-007],metabolic stability,[1],improved
same,1-deoxy-SLs in the brain,[2],attenuated the age-related increase in 1-deoxy-SLs
same,total ceramides in the gastrocnemius,[2],lower levels of total ceramides
same,"very long chain 1-deoxy-SLs (1-deoxyCer 22, 1-deoxyCer 24:1, N-C24:1-deoxysphinganine) in the gastrocnemius muscle",[2],attenuated
same,oral bioavailability,[3],orally bioavailable
same,toxicity in long-term dosing,[3]; rodents,non-toxic in long-term dosing in rodents
